Data set [1] deals with rat model of rheumatoid arthritis. Also noted: method as in PMID 32388428. Particulars: dose of 30 mg/kg/day; cited from earlier work.
For data set [2], the system named is human neutrophils (hPMN). Also noted: method as in PMID 32388428. Particulars: Ca2+ mobilization; cited from earlier work.
The test system of data set [3] is CFA-treated rats. Briefly: Paw pressure test in CFA-induced inflammatory arthritis. The class given is in vivo, rat. To be noted: 10 mg/kg p.o. daily for 7 days, day 8 (24 h after last dose), CFA + vehicle 35.2 ± 1.6 g, sham + vehicle 66.4 ± 2.3 g, mean ± SEM, five rats. On the procedure:
(§1) Male Sprague Dawley rats (Envigo, Varese, Italy) weighing approximately 200–250 g at the beginning of the experimental procedure were used. Animals were housed in Ce.S.A.L. (Centro Stabulazione Animali da Laboratorio, University of Florence) and used at least one week after their arrival. Four rats were housed per cage (size 26 × 41 cm^2); animals were fed a standard laboratory diet, given tap water ad libitum, and kept at 23 ± 1 °C with a 12 h light/dark cycle, light at 7 a.m. All animal manipulations were carried out according to the Directive 2010/63/EU of the European parliament and of the European Union council (22 September 2010) on the protection of animals used for scientific purposes. The ethical policy of the University of Florence complies with the Guide for the Care and Use of Laboratory Animals of the US National Institutes of Health (NIH Publication No. 85–23, revised 1996; University of Florence assurance number: A5278-01). Formal approval to conduct the experiments described was obtained from the Italian Ministry of Health (No. 517/2017, 06/04/2017) and from the Animal Subjects Review Board of the University of Florence. Experiments involving animals have been reported according to ARRIVE guidelines. […]
Nociceptive threshold was determined with an analgesimeter (Ugo Basile, Varese, Italy). […]

The test system of data set [4] is CFA-treated rats. Briefly: Incapacitance test in CFA-induced inflammatory arthritis. The class given is in vivo, rat. Particulars: 10 mg/kg p.o. daily for 7 days, day 8, CFA + vehicle 57.2 ± 4.0 g, sham + vehicle 3.6 ± 2.5 g, mean ± SEM, five rats. The protocol:
as §1, with “A5278-01).” for “A5278-01). Formal approval to conduct the experiments described was obtained from the Italian Ministry of Health (No. 517/2017, 06/04/2017) and from the Animal Subjects Review Board of the University of Florence. Experiments involving animals have been reported according to ARRIVE guidelines.”
Weight bearing changes were measured using an Incapacitance Apparatus (Linton Instrumentation, UK), detecting changes in postural equilibrium after a hind limb injury. […] Data are expressed as the difference between the weight applied to the limb contralateral to the injury and the weight applied to the ipsilateral one (Δ weight).

In data set [5] the target is T1, FPR1 (Homo sapiens, UniProt P21462).
T1 construct: expressed in transfected cells; host or cells: HL60 (human promyelocytic leukemia), stably transfected; gift from Dr. Marie-Josephe Rabiet
T1 sequence (P21462 1-350): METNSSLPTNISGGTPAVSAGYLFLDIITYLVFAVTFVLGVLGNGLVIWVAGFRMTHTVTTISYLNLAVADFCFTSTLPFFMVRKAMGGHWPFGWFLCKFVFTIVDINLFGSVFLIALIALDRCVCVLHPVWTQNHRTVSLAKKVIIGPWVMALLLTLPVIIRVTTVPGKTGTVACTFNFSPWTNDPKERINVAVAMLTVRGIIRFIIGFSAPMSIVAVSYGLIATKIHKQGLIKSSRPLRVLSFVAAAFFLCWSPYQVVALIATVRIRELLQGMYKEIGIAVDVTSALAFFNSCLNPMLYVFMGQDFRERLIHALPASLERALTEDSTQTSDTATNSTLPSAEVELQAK
Also noted: method as in PMID 32388428. To be noted: Ca2+ mobilization; read-out: FPR1-HL60 EC50; cited from earlier work.

The target in data set [6] is T2, FPR2 (Homo sapiens, UniProt P25090).
T2 construct: expressed in transfected cells; host or cells: HL60 (human promyelocytic leukemia), stably transfected; gift from Dr. Marie-Josephe Rabiet
T2 sequence (P25090 1-351): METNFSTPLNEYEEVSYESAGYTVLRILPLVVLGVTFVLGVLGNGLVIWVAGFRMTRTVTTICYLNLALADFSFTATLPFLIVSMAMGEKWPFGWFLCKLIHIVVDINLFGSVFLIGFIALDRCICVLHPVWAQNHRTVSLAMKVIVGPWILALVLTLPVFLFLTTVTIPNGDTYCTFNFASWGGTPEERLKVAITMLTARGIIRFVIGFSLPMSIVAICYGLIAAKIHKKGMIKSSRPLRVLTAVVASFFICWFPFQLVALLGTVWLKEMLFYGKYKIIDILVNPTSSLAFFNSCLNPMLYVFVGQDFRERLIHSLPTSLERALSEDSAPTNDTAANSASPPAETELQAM
On the set-up: method as in PMID 32388428. To be noted: Ca2+ mobilization; read-out: FPR2-HL60 EC50; cited from earlier work.

Data set [7] concerns the target T2, FPR2. Briefly: Ca2+ mobilization in FPR2-transfected HL60 cells. Type of data set: cell-based. Particulars: for selectivity index (SI) FPR1/FPR2: ratio of EC50 FPR1-HL60 / FPR2-HL60; for Emax: HL-60, read-out: FPR2-HL60 Efficacy (converted).
Method: (§2) Human promyelocytic leukemia HL60 cells stably transfected with FPR1 (FPR1-HL60 cells) or FPR2 (FPR2-HL60 cells) (kind gift from Dr. Marie-Josephe Rabiet, Université Joseph Fourier, Grenoble, France) were cultured in RPMI 1640 medium supplemented with 10% heat-inactivated fetal calf serum, 10 mM HEPES, 100 μg/mL streptomycin, 100 U/mL penicillin, and G418 (1 mg/mL). G418 was removed in the last round of culture before assays were performed.
For data set [8], the system named is animal models (collagen-induced and antigen-induced arthritis) of RA. Also noted: method as in PMID 16697190, PMID 29879657. Particulars: dose of 30 mg/kg (i.p.); cited from earlier work.
Data set [9] addresses T1, FPR1. Kind of data set: Ca2+ mobilization in FPR1-transfected HL60 cells. The class given is cell-based. Particulars: for Emax: HL-60, read-out: FPR1-HL60 Efficacy (converted).
Method: as §2
In data set [10] the test system is human neutrophils (hPMN). Briefly: Ca2+ mobilization in human neutrophils (hPMN). The class given is cell-based. Particulars: Neutrophil; for Emax: read-out: hPMN Efficacy (converted). The source says:
Blood was collected from healthy donors in accordance with a protocol approved by the Institutional Review Board at Montana State University. Neutrophils were purified from the blood using dextran sedimentation, followed by Histopaque 1077 gradient separation and hypotonic lysis of red blood cells. Isolated neutrophils were washed twice and resuspended in HBSS^-. Neutrophil preparations were routinely >95% pure, as determined by light microscopy, and >98% viable, as determined by trypan blue exclusion.
Changes in intracellular Ca^2+ were measured with a FlexStation II scanning fluorometer (Molecular Devices, Sunnyvale, CA, USA). The cells, suspended in Hank’s balanced salt solution without Ca^2+ and Mg^2+ but with 10 mM HEPES (HBSS^−), were loaded with 1.25 μg/mL Fluo-4 AM dye and incubated for 30 min in the dark at 37 °C. After dye loading, the cells were washed with HBSS^- containing 10 mM HEPES, resuspended in HBSS^+ containing Ca^2+, Mg^2+, and 10 mM HEPES (HBSS^+), and aliquoted into the wells of flat-bottom, half-area-well black microtiter plates (2 × 10^5 cells/well). For the evaluation of direct agonist activity, compounds of interest were added from a source plate containing dilutions of test compounds in HBSS^+, and changes in fluorescence were monitored (λex = 485 nm, λem = 538 nm) every 5 s for 240 s at room temperature after the automated addition of compounds. Maximum change in fluorescence during the first 3 min, expressed in arbitrary units over baseline, was used to determine a response. […] Curve fitting (5–6 points) and calculation of median effective inhibitory concentrations (IC50) were performed by nonlinear regression analysis of the dose–response curves generated using Prism 9 (GraphPad Software, Inc., San Diego, CA, USA).

The test system of data set [11] is model of antigen-induced arthritis. Also noted: method as in PMID 33493655, PMID 30419493. To be noted: increasing neutrophil apoptosis and efferocytosis; cited from earlier work.

The source of these data is paper PMC8587000, “Pyridinone Derivatives as Interesting Formyl Peptide Receptor (FPR) Agonists for the Treatment of Rheumatoid Arthritis” (Molecules, 2021).

Like-named read-outs stand apart in the source and are kept apart here. Bounds are passed on as bounds.

For the compound `COc1cccc(-c2cc(C#N)c(=O)n(CC(=O)Nc3ccc(Br)cc3)c2C)c1` [AMC3], the “effect on pain hypersensitivity” value in data set [1] was “completely control pain hypersensitivity”. The EC50 with human neutrophils (hPMN) [2] was 0.39 ± 0.17 µM. Besides, the “pain threshold (paw pressure test)” value in the data set on CFA-treated rats [3] was determined as 52.4 ± 2.8 g. For the same compound, in the data set on CFA-treated rats [4], the “postural unbalance, Δ Weight (incapacitance test)” value came out at 34.6 ± 3.8 g.
In the case of `CCOC(=O)c1cc(C#N)c(=O)n(CC(=O)Nc2ccc(Br)cc2)c1C` [AMC4, reference compound], the EC50 is 3 ± 0.4 µM on FPR1 [5], 0.38 ± 0.09 µM at FPR2 [6] and 0.83 ± 0.24 µM in the data set on human neutrophils (hPMN) [2]. Moreover, the “selectivity index (SI) FPR1/FPR2” value on FPR2 [7] amounted to 8.
Consider `CC(C)c1c(NC(=O)Nc2ccc(Cl)cc2)c(=O)n(-c2ccccc2)n1C` [Cpd43], for which, in data set [8], the “effect on arthritis (tissue inflammation, cartilage damage, synovitis)” value was “significantly reducing the tissue inflammation, cartilage damage, and synovitis”.
Regarding `CCNC(=O)c1cc(C#N)c(=O)n(CC(=O)Nc2ccc(Br)cc2)c1C` [Compound 8b, 1-{2-[(4-Bromophenyl)amino]-2-oxoethyl}-5-cyano-N-ethyl-2-methyl-6-oxo-1,6-dihydropyridine-3-carboxamide], the melting point is 290 °C (dec.). For the same compound, at FPR1 [9], the EC50 worked out at 21.2 ± 1.2 µM and the Emax was 145%. In addition, at FPR2 [7], the midpoint of the response, the EC50, lay at 3.3 ± 0.2 µM; the Emax was 120%; the “selectivity index (SI) FPR1/FPR2” value amounted to 6. For the same compound, in the data set on human neutrophils (hPMN) [10], the EC50 stood at 11.4 ± 3.1 µM and the Emax is 80%.
Take `CCCCOC(=O)c1cc(C#N)c(=O)n(CC(=O)Nc2ccc(Br)cc2)c1C` [Compound 4b, Butyl 1-{2-[(4-bromophenyl)amino]-2-oxoethyl}-5-cyano-2-methyl-6-oxo-1,6-dihydropyridine-3-carboxylate]: the melting point is 109 to 111 °C (dec.). Moreover, at FPR1 [9], the EC50 was 29.7 ± 4.6 µM and the Emax was 70%. At FPR2 [7], a half-maximal response (EC50) required 18.3 ± 4.2 µM and the Emax was 75%. In addition, in the data set on human neutrophils (hPMN) [10], the EC50 worked out at 27.9 ± 3.2 µM and the Emax was 110%.
As to `CCC[C@@H](O)c1c(/C=C/[C@@H](O)[C@@H](O)CCCC(=O)OC)nc(C)n1C` [AT-01-KG], the anti-inflammatory activity result in [11] is “anti-inflammatory activity”.
Regarding `CNC(=O)c1cc(C#N)c(=O)n(CC(=O)Nc2ccc(Br)cc2)c1C` [Compound 8a, 1-{2-[(4-Bromophenyl)amino]-2-oxoethyl}-5-cyano-N,2-dimethyl-6-oxo-1,6-dihydropyridine-3-carboxamide], the melting point is > 300 °C (dec.). On FPR1 [9], the response was half-maximal at 2.2 ± 0.6 µM (EC50) and the Emax is 105%. Moreover, on FPR2 [7], the response was half-maximal at 1.3 ± 0.4 µM (EC50) and the Emax is 115%. Moreover, in the data set on human neutrophils (hPMN) [10], the response was half-maximal at 4.9 ± 1.2 µM (EC50) and the Emax was 105%.
